Consider 20 compounds from PMC6943664 (Molecules, 2019).

One test has as its target T1, human recombinant MAO A (Homo sapiens, UniProt P21397).
T1 construct: purchased Sigma Aldrich, Milan, Italy
T1 sequence (P21397 1-527): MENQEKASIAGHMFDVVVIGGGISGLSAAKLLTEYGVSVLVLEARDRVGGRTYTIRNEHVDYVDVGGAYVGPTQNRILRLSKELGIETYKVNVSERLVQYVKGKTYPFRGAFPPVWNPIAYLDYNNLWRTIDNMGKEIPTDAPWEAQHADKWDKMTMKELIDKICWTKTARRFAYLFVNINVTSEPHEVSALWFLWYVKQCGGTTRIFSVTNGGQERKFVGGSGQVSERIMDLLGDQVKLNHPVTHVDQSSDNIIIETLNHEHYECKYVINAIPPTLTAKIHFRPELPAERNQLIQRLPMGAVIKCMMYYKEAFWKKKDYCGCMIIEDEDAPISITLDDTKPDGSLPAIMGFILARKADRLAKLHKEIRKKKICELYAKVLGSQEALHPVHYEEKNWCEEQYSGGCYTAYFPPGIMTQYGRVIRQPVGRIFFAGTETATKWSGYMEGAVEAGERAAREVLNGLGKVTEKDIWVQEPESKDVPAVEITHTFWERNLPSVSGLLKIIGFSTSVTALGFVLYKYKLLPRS
Nature of the test: biochemical. The following applies: for inhibition at 10 µM: read-out: MAO A % inhibition at 10 μM, mean ±SEM of three. The protocol:
(§1) In vitro enzymatic screening toward ChEs was carried out according to the known Ellman’s protocol, by using eeAChE and esBChE as highly homologous and cheaper surrogates for human enzymes. The enzyme inhibition assays on human MAOs were performed by applying already reported methods.
(§2) All enzymes and reagents were purchased from Sigma Aldrich, Milan, Italy. Inhibition of human recombinant MAO A and B was assayed by monitoring the fluorescence of 4-hydroxyquinoline produced from the oxidation of substrate kynuramine, following a previously published method. Acetylcholinesterase from electric eel and butyrylcholinesterase from equine serum were used in the Ellman’s spectrophotometric method as already described. In all cases, a 96-well plate procedure was used with an Infinite M1000 Pro plate reader (Tecan, Cernusco sul Naviglio, Italy). Inhibition values were determined as IC50 values by statistical analysis using Prism (GraphPad Prism version 5.00 for Windows, GraphPad Software, San Diego, CA, USA).

A further test concerns the target T2, human recombinant MAO B (Homo sapiens, UniProt P27338).
T2 construct: purchased Sigma Aldrich, Milan, Italy
T2 sequence (P27338 1-520): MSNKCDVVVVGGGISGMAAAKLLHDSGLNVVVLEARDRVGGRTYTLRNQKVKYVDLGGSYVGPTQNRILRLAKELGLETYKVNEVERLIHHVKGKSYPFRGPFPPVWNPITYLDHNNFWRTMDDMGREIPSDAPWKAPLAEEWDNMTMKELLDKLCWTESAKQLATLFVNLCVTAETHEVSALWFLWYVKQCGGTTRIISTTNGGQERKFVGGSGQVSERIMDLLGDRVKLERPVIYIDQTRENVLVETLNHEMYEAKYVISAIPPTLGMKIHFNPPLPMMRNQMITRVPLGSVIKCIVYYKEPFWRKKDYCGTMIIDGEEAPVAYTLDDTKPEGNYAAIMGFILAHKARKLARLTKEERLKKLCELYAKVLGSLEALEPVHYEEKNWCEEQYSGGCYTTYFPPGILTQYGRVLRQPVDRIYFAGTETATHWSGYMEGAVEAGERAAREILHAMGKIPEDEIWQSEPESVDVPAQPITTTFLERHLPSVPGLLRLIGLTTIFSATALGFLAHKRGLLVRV
Nature of the test: Human recombinant MAO B inhibition (kynuramine fluorescence). The following applies: mean ±SEM of three independent experiments. The class given is biochemical. The protocol: as §1, §2

The target in test [1] is T3, Acetylcholinesterase from electric eel (Electrophorus electricus, UniProt O42275).
T3 construct: purchased Sigma Aldrich, Milan, Italy
Nature of the test: biochemical. The following applies: for IC50: AChE from electric eel, mean ±SEM of three; for inhibition at 10 µM: read-out: AChE % inhibition at 10 μM. The class given is biochemical. As to the method:
as §1, §2

In test [2] the target is T4, butyrylcholinesterase from equine serum (Equus caballus, UniProt P81908).
T4 construct: butyrylcholinesterase from equine serum; purchased Sigma Aldrich, Milan, Italy; host or cells: equine serum
As to the kind of experiment: biochemical. Format: biochemical. The following applies: for inhibition at 10 µM: read-out: BChE % inhibition at 10 μM; for IC50: BChE from equine serum, mean ±SEM of three. The protocol:
as §1, §2

Setting [3] is: human recombinant MAO, read-out: MAO B IC50.
The mark [4] stands for this setting: human recombinant MAO, mean ±SEM of three independent experiments, read-out: MAO A IC50.
Setting [5] is: MAO B IC50, human recombinant MAO.

“And” between values parts separate entries of the source, which are not always exact repeats. Equal values may be shown once. Where a name gives a salt, the structure may show the parent alone. Read-outs that look alike come from different tables or passages of the source.

T3 sequence (O42275 24-633): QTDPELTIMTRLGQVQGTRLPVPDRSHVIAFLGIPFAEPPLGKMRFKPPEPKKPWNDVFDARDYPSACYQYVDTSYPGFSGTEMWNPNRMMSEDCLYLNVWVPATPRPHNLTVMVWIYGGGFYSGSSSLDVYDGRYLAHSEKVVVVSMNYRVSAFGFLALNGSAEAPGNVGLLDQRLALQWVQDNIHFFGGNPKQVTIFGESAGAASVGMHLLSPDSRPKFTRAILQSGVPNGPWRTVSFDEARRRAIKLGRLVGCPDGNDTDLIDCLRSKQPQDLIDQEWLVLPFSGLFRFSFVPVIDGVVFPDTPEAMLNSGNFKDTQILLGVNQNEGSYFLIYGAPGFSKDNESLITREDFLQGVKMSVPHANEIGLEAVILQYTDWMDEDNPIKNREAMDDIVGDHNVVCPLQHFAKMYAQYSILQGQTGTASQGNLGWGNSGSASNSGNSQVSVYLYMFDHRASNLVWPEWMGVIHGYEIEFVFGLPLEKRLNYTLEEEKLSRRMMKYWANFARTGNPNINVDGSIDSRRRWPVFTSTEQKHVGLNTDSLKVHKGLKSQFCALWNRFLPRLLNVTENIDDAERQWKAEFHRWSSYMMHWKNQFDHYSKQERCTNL
T4 sequence (P81908 whole entry): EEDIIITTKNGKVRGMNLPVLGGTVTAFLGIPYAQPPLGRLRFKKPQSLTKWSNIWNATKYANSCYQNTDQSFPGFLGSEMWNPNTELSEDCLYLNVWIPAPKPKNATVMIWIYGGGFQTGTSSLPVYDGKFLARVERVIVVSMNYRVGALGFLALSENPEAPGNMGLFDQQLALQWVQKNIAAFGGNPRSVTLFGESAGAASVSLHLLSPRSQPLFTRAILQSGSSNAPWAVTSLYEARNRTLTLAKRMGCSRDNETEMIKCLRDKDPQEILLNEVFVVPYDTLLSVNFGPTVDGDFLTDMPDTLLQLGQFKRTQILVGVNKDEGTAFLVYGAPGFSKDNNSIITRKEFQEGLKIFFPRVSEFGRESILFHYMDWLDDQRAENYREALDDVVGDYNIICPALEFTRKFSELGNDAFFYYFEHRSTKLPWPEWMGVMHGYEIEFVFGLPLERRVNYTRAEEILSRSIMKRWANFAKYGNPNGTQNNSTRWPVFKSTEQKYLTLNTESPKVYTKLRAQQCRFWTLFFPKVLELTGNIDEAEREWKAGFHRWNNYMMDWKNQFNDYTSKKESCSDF

As usually defined, the inhibition is the share of the control response that was lost under treatment. The term IC50 denotes the concentration that inhibits the measured activity by half. As for `CNCc1cc(=O)oc2cc(OCc3cccc(N(C)C)c3)ccc12` [compound 4, 7-{[3-(Dimethylamino)benzyl]oxy}-4-[(methylamino)methyl]-2H-chromen-2-one], the inhibition at 10 µM on human recombinant MAO A (human recombinant MAO) was found to be 49 ± 1%; in test [2] it was 34 ± 5%. The IC50 on human recombinant MAO B (setting [3]) stood at 570 ± 50 nM; in test [1], 6 ± 1.5 µM.
Regarding `CNCc1cc(=O)oc2cc(OCc3cc(OC)cc(OC)c3)ccc12` [compound 5, 7-[(3,5-Dimethoxybenzyl)oxy]-4-[(methylamino)methyl]-2H-chromen-2-one], the figures for the IC50 (on human recombinant MAO A (setting [4]); on human recombinant MAO B (setting [3]); in test [1]) were 1000 ± 100 nM, 67 ± 5 nM and 11 ± 2 µM, respectively. For the same compound, the inhibition at 10 µM in test [2] is 20 ± 4%.
For `CNCc1cc(=O)oc2cc(OCc3ccc4c(c3)OCO4)ccc12` [compound 6, 7-(1,3-benzodioxol-5-ylmethoxy)-4-[(methylamino)methyl]-2H-chromen-2-one], the IC50 worked out at 1200 ± 100 nM at human recombinant MAO A (setting [4]), 7.5 ± 0.1 nM at human recombinant MAO B (setting [3]), 8.5 ± 1.8 µM in test [1] and 3.4 ± 2.1 µM in test [2].
For the compound `CNCc1cc(=O)oc2cc(OCc3ccccc3)ccc12` [compound 7, 7-(benzyloxy)-4-[(methylamino)methyl]-2H-chromen-2-one], the IC50 at human recombinant MAO A (setting [4]) came out at 530 ± 10 nM; at human recombinant MAO B (setting [3]), 2.1 ± 0.2 nM. Further, the inhibition at 10 µM in test [1] turned out to be 26 ± 5%; in test [2], 17 ± 1%.
For the compound `CNCc1cc(=O)oc2cc(OCc3cccc(F)c3)ccc12` [compound 9, 7-[(3-fluorobenzyl)oxy]-4-[(methylamino)methyl]-2H-chromen-2-one], the IC50 turned out to be 1740 ± 40 nM on human recombinant MAO A (setting [4]), 1.3 ± 0.1 nM on human recombinant MAO B (setting [3]), 2.7 ± 1 µM in test [1] and 4.8 ± 0.3 µM in test [2].
Consider `CNCc1cc(=O)oc2c(C)c(OCc3cccc(Cl)c3)ccc12` [compound 10, 7-[(3-Chlorobenzyl)oxy]-8-methyl-4-[(methylamino)methyl]-2H-chromen-2-one], for which the IC50 at human recombinant MAO A (setting [4]) worked out at 1000 ± 100 nM; on human recombinant MAO B (setting [3]), 170 ± 10 nM; in test [1], 7.2 ± 0.6 µM. Also, the inhibition at 10 µM in test [2] was determined as 46 ± 2%.
Regarding `CNCc1cc(=O)oc2cc(OCc3cccc(Cl)c3)c(C)cc12` [compound 11, 7-[(3-Chlorobenzyl)oxy]-6-methyl-4-[(methylamino)methyl]-2H-chromen-2-one hydrochloride], the IC50 was 580 ± 30 nM at human recombinant MAO A and 68 ± 2 nM at human recombinant MAO B (setting [5]). In addition, the inhibition at 10 µM worked out at 47.1 ± 0.3% in test [1] and 48.1 ± 0.6% in test [2].
As for `CNCc1cc(=O)oc2cc(OCc3cccc(Cl)c3)c(Cl)cc12` [compound 12, 6-Chloro-7-[(3-chlorobenzyl)oxy]-4-[(methylamino)methyl]-2H-chromen-2-one], the inhibition at 10 µM stood at 48 ± 1% on human recombinant MAO A (human recombinant MAO) and 27 ± 2% in test [2]. The figures for the IC50 (at human recombinant MAO B (setting [3]); in test [1]) were 1000 ± 100 nM and 7.9 ± 0.4 µM, respectively.
Turning to `O=c1cc(CNCc2ccccc2)c2ccc(OCc3cccc(Cl)c3)cc2o1` [compound 13, 4-[(benzylamino)methyl]-7-[(3-chlorobenzyl)oxy]-2H-chromen-2-one], the inhibition at 10 µM at human recombinant MAO A (human recombinant MAO) turned out to be 24 ± 3%. Also, the IC50 worked out at 103 ± 1 nM at human recombinant MAO B (setting [3]), 17 ± 1 µM in test [1] and 3.4 ± 1.3 µM in test [2].
For `CN(Cc1ccccc1)Cc1cc(=O)oc2cc(OCc3cccc(Cl)c3)ccc12` [compound 14, 4-{[benzyl(methyl)amino]methyl}-7-[(3-chlorobenzyl)oxy]-2H-chromen-2-one], the inhibition at 10 µM on human recombinant MAO A (human recombinant MAO) came out at 28 ± 1%. Further, the IC50 at human recombinant MAO B (setting [3]) worked out at 332 ± 26 nM; in test [1], 16 ± 1 µM; in test [2] it was 6.3 ± 0.3 µM.
Consider `O=c1cc(CN2CCCC2)c2ccc(OCc3cccc(Cl)c3)cc2o1` [compound 15, 7-[(3-chlorobenzyl)oxy]-4-(pyrrolidin-1-ylmethyl)-2H-chromen-2-one], for which the IC50 is 1120 ± 10 nM on human recombinant MAO A (setting [4]), 152 ± 20 nM on human recombinant MAO B (setting [3]) and 6.6 ± 0.9 µM in test [1]. In addition, the inhibition at 10 µM in test [2] turned out to be 14 ± 2%.
Regarding `CN1CCN(Cc2cc(=O)oc3cc(OCc4cccc(Cl)c4)ccc23)CC1` [compound 16, 7-[(3-Chlorobenzyl)oxy]-4-[(4-methylpiperazin-1-yl)methyl]-2H-chromen-2-one], the inhibition at 10 µM at human recombinant MAO A (human recombinant MAO) amounted to 32 ± 5%. The IC50 on human recombinant MAO B (setting [3]) is 270 nM and 273 nM; in test [1], 3.1 ± 0.6 µM; in test [2] it was 2.3 ± 0.9 µM. Moreover, in test [1] (eeAChE vs human MAO B), the “AChE/MAO B IC50 ratio” value is 11. Further, the “BChE/MAO B IC50 ratio” value in test [2] (esBChE vs human MAO B) worked out at 9.
As to `O=c1cc(CN2CCOCC2)c2ccc(OCc3cccc(Cl)c3)cc2o1` [compound 17, 7-[(3-chlorobenzyl)oxy]-4-(morpholin-4-ylmethyl)-2H-chromen-2-one], the values for the inhibition at 10 µM (on human recombinant MAO A (human recombinant MAO); in test [2]) were 32 ± 3% and 46 ± 2%, respectively. In addition, the values for the IC50 (at human recombinant MAO B (setting [3]); in test [1]) were 172 ± 1 nM and 6.6 ± 1.1 µM, respectively.
Take `NCc1cc(=O)oc2cc(OCc3cccc(Cl)c3)ccc12` [compound 18, 4-(aminomethyl)-7-[(3-chlorobenzyl)oxy]-2H-chromen-2-one]: the inhibition at 10 µM on human recombinant MAO A (human recombinant MAO) is 46 ± 3%; in test [2] it was 20 ± 7%. Moreover, the IC50 worked out at 66 ± 15 nM on human recombinant MAO B (setting [3]) and 17 ± 4 µM in test [1].
On to `CN(C)Cc1cc(=O)oc2cc(OCc3cccc(Cl)c3)ccc12` [compound 19, 7-[(3-chlorobenzyl)oxy]-4-[(dimethylamino)methyl]-2H-chromen-2-one], for which the IC50 at human recombinant MAO A (setting [4]) amounted to 9200 ± 700 nM; on human recombinant MAO B (setting [3]), 213 ± 2 nM; in test [1], 8.3 ± 2 µM; in test [2], 7 ± 1.1 µM.
Turning to `CCCNCc1cc(=O)oc2cc(OCc3cccc(Cl)c3)ccc12` [compound 20, 7-[(3-chlorobenzyl)oxy]-4-[(propylamino)methyl]-2H-chromen-2-one], the inhibition at 10 µM at human recombinant MAO A (human recombinant MAO) stood at 48 ± 1%. For the same compound, the values for the IC50 (at human recombinant MAO B (setting [3]); in test [1]; in test [2]) were 9.4 ± 3.5 nM, 4.9 ± 1.4 µM and 3.6 ± 0.8 µM, respectively.
For `CCCCNCc1cc(=O)oc2cc(OCc3cccc(Cl)c3)ccc12` [compound 21, 4-[(butylamino)methyl]-7-[(3-chlorobenzyl)oxy]-2H-chromen-2-one], the inhibition at 10 µM was determined as 41 ± 3% on human recombinant MAO A (human recombinant MAO) and 39 ± 1% in test [1]. Further, the IC50 was determined as 164 ± 2 nM on human recombinant MAO B (setting [3]) and 4.8 ± 0.3 µM in test [2].
Regarding `C#CCNCc1cc(=O)oc2cc(OCc3cccc(Cl)c3)ccc12` [compound 22, 7-[(3-Chlorobenzyl)oxy]-4-[(prop-2-yn-1-ylamino)methyl]-2H-chromen-2-one], the IC50 amounted to 1100 ± 100 nM at human recombinant MAO A (setting [4]), 4.1 ± 1.1 nM on human recombinant MAO B (setting [3]) and 2.1 ± 0.2 µM in test [1]. For the same compound, the inhibition at 10 µM in test [2] amounted to 33 ± 6%.
`C#CCN(C)Cc1cc(=O)oc2cc(OCc3cccc(Cl)c3)ccc12` [compound 23, 7-[(3-Chlorobenzyl)oxy]-4-{[methyl(prop-2-yn-1-yl)amino]methyl}-2H-chromen-2-one hydrochloride]: the IC50 turned out to be 1700 ± 100 nM on human recombinant MAO A, 84 ± 2 nM at human recombinant MAO B (setting [5]) and 5.6 ± 0.7 µM in test [1]. Moreover, the inhibition at 10 µM in test [2] worked out at 28 ± 1%.
On to `CNC(=O)CNCc1cc(=O)oc2cc(OCc3cccc(Cl)c3)ccc12` [compound 25, N^2-({7-[(3-Chlorobenzyl)oxy]-2-oxo-2H-chromen-4-yl}methyl)-N^1-methylglycinamide], for which the IC50 is 2600 ± 100 nM at human recombinant MAO A (setting [4]), 1.1 ± 0.3 nM at human recombinant MAO B (setting [3]) and 5.3 ± 1.4 µM in test [1]. Besides, the inhibition at 10 µM in test [2] is less than 5%.
